Measured values published in patent US20080064027A1, “TEL/Etv6-mediated inhibition of cell proliferation” (priority 2002, published 2008).

Experiments:
[1] = system: Stat3 transcriptional activity; assay: APRE-driven luciferase reporter assay; assay type: cell-based; details: for Relative Luciferase Activity: 24 hours, control = 1; for Stat3-dependent transcription of luciferase, increase over control: Stat3-ER-expressing A375, without TEL siRNA
Description: Luciferase assays are used to verify that the Stat3-ER construct is transcriptionally active. For this purpose, a luciferase reporter gene driven by the acute-phase response element (APRE) of the alpha 2-macroglobulin gene, a target for Stat1 and Stat3, was used.
Cells (2×10^6 cells/6 well dish) were transfected with a reporter plasmid containing four copies of acute phase responsible element (APRE) upstream of the minimal junB promoter linked to the luciferase gene (T Hirano, EMBO Journal, 1996, 15, 3651-3658), together with the internal control plasmid pRL-SV40 from Promega (Madison, Wis.). Twenty-four hours after the transfection, cells were either left unstimulated or stimulated with OSM (PeproTechEC, London, United Kingdom), 4-hydroxytamoxifen (4HT; Sigma, St. Louis, Mo.) or a combination of 4HT/OSM for 24 hours. The preparation of cell extracts and measurement of luciferase activities were carried out using the Dual-Luciferase reporter assay system from Promega (Madison, Wis.) in an Autolumat LB 953 (Berthold Technologies, Wildbad, Germany). Changes in firefly luciferase activity were expressed relative to Renilla luciferase activity in the same sample.

[2] = molecular target: T1, Stat3-ER (UniProt P19785+P40763, G525R); assay: Stat3 oligonucleotide DNA binding assay on nuclear extracts; assay type: cell-based
T1 construct: expressed in transfected cells
Protocol: DNA binding assays were carried out using cells stimulated with 4HT (1 microM) for 0, 0.3, 1, 2, 4 and 24 hours. […] Samples were centrifuged and the pellet was washed two more times with binding buffer. Proteins were eluted from beads by boiling in 25 microliters of 2× loading buffer (1% DTT, 4% SDS, 20% Glycerol, 0.02% Bromophenol Blue, 0.25 M TrisHCl 1M 6.8 pH) and SDS-PAGE was performed.
DNA binding of Stat3-ER and endogenous Stat3 was monitored by performing Western analysis on the oligonucleotide-bound proteins.

[3] = 4HT 1 microM, Stat3-ER expressing A375 cells

T1 sequence (P40763+P19785 fused P19785:G525R): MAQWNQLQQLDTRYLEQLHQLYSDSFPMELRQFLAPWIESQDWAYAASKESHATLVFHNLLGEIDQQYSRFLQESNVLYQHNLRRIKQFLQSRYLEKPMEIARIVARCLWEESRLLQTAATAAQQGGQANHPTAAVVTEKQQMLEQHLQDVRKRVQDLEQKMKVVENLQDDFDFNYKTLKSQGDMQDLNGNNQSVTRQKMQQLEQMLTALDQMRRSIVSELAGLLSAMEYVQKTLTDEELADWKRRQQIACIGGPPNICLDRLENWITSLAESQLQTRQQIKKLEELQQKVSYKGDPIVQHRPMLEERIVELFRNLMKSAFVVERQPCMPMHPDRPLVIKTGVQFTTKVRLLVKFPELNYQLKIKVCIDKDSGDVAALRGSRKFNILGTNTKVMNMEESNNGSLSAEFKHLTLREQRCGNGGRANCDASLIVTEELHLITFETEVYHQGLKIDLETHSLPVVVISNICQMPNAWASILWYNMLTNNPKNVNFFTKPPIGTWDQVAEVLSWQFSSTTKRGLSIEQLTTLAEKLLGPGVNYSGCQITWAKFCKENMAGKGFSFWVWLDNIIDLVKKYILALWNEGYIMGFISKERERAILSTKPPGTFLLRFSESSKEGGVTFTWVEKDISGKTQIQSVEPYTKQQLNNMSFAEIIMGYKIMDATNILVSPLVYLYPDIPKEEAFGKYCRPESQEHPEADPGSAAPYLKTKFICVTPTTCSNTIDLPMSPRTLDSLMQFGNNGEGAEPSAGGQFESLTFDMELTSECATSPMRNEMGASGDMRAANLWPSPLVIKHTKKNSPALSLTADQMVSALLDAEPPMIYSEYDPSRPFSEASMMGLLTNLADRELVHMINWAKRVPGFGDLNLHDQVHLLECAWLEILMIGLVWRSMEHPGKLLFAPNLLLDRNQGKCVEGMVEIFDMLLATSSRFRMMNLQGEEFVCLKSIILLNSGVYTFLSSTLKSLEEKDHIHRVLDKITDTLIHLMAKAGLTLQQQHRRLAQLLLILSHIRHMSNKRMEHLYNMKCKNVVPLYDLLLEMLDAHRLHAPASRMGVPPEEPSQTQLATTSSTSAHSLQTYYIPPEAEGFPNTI

Compound: CCC(=C(c1ccc(O)cc1)c1ccc(OCCN(C)C)cc1)c1ccccc1 [4HT, 4-hydroxytamoxifen, reference compound]
- Relative Luciferase Activity [1, 3]: 29
- stimulation of transcription from the APRE [1, 3]: more efficiently than 100 ng/ml OSM
- Stat3-dependent transcription of luciferase, increase over control [1]: about 6 fold
- earliest time at which Stat3ER-DNA binding was detected after stimulation ([2]; 4HT 1 microM): 20 min
- time of maximum measured Stat3ER-DNA binding ([2]; 4HT 1 microM): 24 h
- Stat3-ER nuclear translocation and DNA binding to Stat3-specific oligonucleotide probe ([2]; 4HT 1 microM, Stat3-ER-expressing A375 cells): induced nuclear translocation and DNA-binding

Compound: oncostatin M [OSM]
- activation of Stat3 transcriptional activity among IL-6 family members tested (IL-6, LIF) ([1]; A375 cells): most potent activator
- Relative Luciferase Activity ([1]; OSM 1 ng/ml, Stat3-ER expressing A375 cells): 3
- Relative Luciferase Activity ([1]; OSM 10 ng/ml, Stat3-ER expressing A375 cells): 9
- Relative Luciferase Activity ([1]; OSM 100 ng/ml, Stat3-ER expressing A375 cells): 18
- Stat3-dependent transcription of luciferase, increase over control [1]: about 9 fold
- endogenous Stat3 DNA binding after OSM addition ([2]; cells pretreated with 4HT for 24 hrs): could be detected 15 min after addition of OSM and decreased after 1 hr of treatment
- Stat3-ER DNA binding in the presence of OSM ([2]; cells pretreated with 4HT for 24 hrs, remained bound for the entire course): enhanced
